The results in this text go back to US20090118220A1, “SUBSTITUTED ADENINES AND THE USES THEREOF” (AstraZeneca AB, priority 2006, published 2009).

One assay concerns DNA ligase. Kind of assay: DNA ligase FRET inhibition assay, isozyme not specified. The assay is classed as biochemical. The procedure:
(§1) Compounds were tested for inhibition of DNA ligase using a Fluorescence Resonance Energy Transfer (FRET) detection assay as previously described (Chen et al. 2002. Analytical Biochemistry 309: 232-240; Benson et al. 2004. Analytical Biochemistry 324:298-300). Assays were performed in 384-well polystyrene flat-bottom black plates in 30 μl reactions containing 3 μl compound dissolved in dimethylsulfoxide, 20 μl 1.5× Enzyme Working Solution (25% glycerol, 45 mM potassium chloride, 45 mM ammonium sulfate, 15 mM dithiothreitol, 1.5 mM ethylenediaminetetraacetic acid (EDTA), 0.003% Brij 35, 75 mM MOPS pH 7.5, 150 nM bovine serum albumin, 1.5 μM NAD^+, 60 nM DNA substrate, 0.375 nM enzyme in water) and 7 μl 70 mM magnesium chlorine solution (96 mM magnesium chloride, 20% glycerol in water) to initiate the reaction. […] Plates were read in a Tecan Ultra plate reader at two separate wavelengths—Read 1: excitation 485, emission 535, Read 2: excitation 485, emission 595. […] Compound potency was based on IC50 measurements determined from reactions performed in the presence of ten different compound concentrations.
Solubility is determined under assay conditions using a nephelometer to detect a change in turbidity as the concentration of compound increases. The limit of solubility is defined as the maximum concentration before a detectable increase in turbidity is measured.

The next assay addresses S. pneumoniae LigA (Streptococcus pneumoniae serotype 4, UniProt Q97QT2). Kind of assay: DNA ligase FRET inhibition assay. The conditions noted are these: FRET detection, ten compound concentrations; read-out: IC50 (μM) against S. pneumoniae LigA. The assay is classed as biochemical. The procedure:
as §1, with “reaction. The DNA substrate is similar to that described in Benson et al. (2004. Analytical Biochemistry 324:298-300).” for “reaction.”

The next assay has as its system S. pneumoniae. Kind of assay: Bacterial susceptibility testing, microbroth dilution (NCCLS), MIC. The assay is classed as cell-based. The following applies: Streptococcus pneumoniae; lowest concentration able to reduce growth by 80% or more; read-out: MIC (μg/ml) against S. pneumoniae. The procedure:
Compounds were tested for antimicrobial activity by susceptibility testing using microbroth dilution methods recommended by NCCLS. Compounds were dissolved in dimethylsulfoxide and tested in 10 doubling dilutions in the susceptibility assays such that the final dimethylsulfoxide concentration in the assay was 2% (v/v). The organisms used in the assay were grown overnight on appropriate agar media and then suspended in the NCCLS-recommended liquid susceptibility-testing media. The turbidity of each suspension was adjusted to be equal to a 0.5 McFarland standard, a further 1-in-10 dilution was made into the same liquid medium to prepare the final organism suspension, and 100 μL of this suspension was added to each well of a microtiter plate containing compound dissolved in 2 μL of dimethylsulfoxide. Plates were incubated under appropriate conditions of atmosphere and temperature and for times according to NCCLS standard methods prior to being read. The Minimum Inhibitory Concentration (MIC) was determined as the lowest drug concentration able to reduce growth by 80% or more.
On the technique in general: In broth dilution the organism is exposed to a series of concentrations in liquid medium.

By IC50 is commonly meant the point on the concentration scale where inhibition reaches its midpoint.

In brackets after ≈: the same amount, converted by molar mass.

Sequence of S. pneumoniae LigA (Q97QT2 whole entry): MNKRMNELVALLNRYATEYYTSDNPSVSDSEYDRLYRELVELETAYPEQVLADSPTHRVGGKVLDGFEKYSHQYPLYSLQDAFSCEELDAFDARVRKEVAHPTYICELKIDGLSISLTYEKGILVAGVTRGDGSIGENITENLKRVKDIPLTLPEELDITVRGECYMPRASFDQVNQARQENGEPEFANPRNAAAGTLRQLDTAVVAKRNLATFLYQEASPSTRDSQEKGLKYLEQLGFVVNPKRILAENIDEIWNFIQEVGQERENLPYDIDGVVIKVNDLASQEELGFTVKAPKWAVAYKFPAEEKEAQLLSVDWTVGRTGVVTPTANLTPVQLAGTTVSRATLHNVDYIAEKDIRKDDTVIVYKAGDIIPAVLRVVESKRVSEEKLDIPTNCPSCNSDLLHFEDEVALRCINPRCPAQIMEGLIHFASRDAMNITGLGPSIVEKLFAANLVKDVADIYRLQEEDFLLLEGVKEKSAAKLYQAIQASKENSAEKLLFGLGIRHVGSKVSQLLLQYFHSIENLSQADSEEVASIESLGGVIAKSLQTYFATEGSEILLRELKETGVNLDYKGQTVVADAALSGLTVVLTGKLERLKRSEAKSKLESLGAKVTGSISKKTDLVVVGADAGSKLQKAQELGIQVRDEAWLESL

Take `Nc1nc(OC2CCCC2)nc2c1ncn2C1OCCC1(Cl)Cl` (centres unmarked) [2-(cyclopentyloxy)-9-(3,3-dichlorotetrahydrofuran-2-yl)-9H-purin-6-amine]: in the assay on DNA ligase, the “inhibition of the ligation reaction at the limit of solubility in the assay medium” value is reported as “approximately 12%”.
With `C=C[C@]1(O)[C@H](O)[C@@H](C)O[C@H]1n1cnc2c(N)nc(OC3CCCC3)nc21` [(2R,3S,4R,5R)-2-(6-amino-2-(cyclopentyloxy)-9H-purin-9-yl)-5-methyl-3-vinyltetrahydrofuran-3,4-diol], in the assay on DNA ligase, the “inhibition of the ligation reaction at the limit of solubility in the assay medium” value is given as “approximately 17%”.
Regarding `C[C@H]1O[C@@H](n2c(NCc3ccccc3)nc3c(N)nc(OC4CCCC4)nc32)[C@H](O)[C@@H]1O` [Example 2], on S. pneumoniae LigA, the half-maximal inhibitory concentration (IC50) was 10 µM.
Take `Nc1nc(OC2CCCC2)nc2c1ncn2[C@@H]1OC(CO)(CO)[C@@H](O)[C@H]1O` [Example 12, (3S,4R,5R)-5-[6-amino-2-(cyclopentyloxy)-9H-purin-9-yl]-2,2-bis(hydroxymethyl)tetrahydrofuran-3,4-diol]: in the assay on S. pneumoniae, the MIC was found to be 16 µg/mL (≈ 42 µM).
As to `Nc1nc(OC2CCCC2)nc2c1ncn2[C@@H]1OC(CF)(CF)[C@@H](O)[C@H]1O` [Example 13, (3S,4R,5R)-5-[6-amino-2-(cyclopentyloxy)-9H-purin-9-yl]-2,2-bis(fluoromethyl)tetrahydrofuran-3,4-diol], the IC50 at S. pneumoniae LigA came out at 1 µM.
